According to patent publication US20230410294A1, “METHOD FOR GRADING THE NUCLEAR MORPHOLOGY OF A TUMOR” (Nanyang Technological University, priority 2020, published 2023):
“Also recorded” adds a separate entry of the source.

Columns and labels:
Assay type in all cases: cell-based
[1] = test system: SK-N-SH cells; assay: Nanopillar-guided subnuclear anisotropicity after anti-cancer drug treatment; conditions: SK-N-SH on nanopillar arrays, 24 h, DOX 1 μM, Etop 10 μM; for fraction of cells with dominant isotropic ring features and low deformation coherency: DMSO control 0.262±0.160, FIG. 19e; for pillar coherency: DMSO control 0.3853±0.1448, FIG. 19d
Experimental: (§1) Nanopillar arrays were cleaned and sterilized by air plasma and UV exposure before cell culture. The nanochip was then coated with fibronectin ([…], Sigma-Aldrich) for 30 minutes under 37° C. The SK-N-SH cells were seeded on the nanostructures after coating and grown in Eagle's Minimum Essential Medium (MEM) supplemented with 2 mM L-glutamine (Gibco), 1% MEM Non-Essential Amino Acids (NEAA) (Gibco), 10% fetal bovine serum (FBS) (Life Technologies) and 100 U ml^−1 penicillin and […] streptomycin (Life Technologies) in a standard incubator at 37° C. with 5% CO2. Drug treatment was done after overnight incubation, the SK-N-SH cells on nanostructures are treated with Etoposide (ETOP) (Sigma), Doxorubicin (DOX) (Sigma) or Dimethyl sulfoxide (DMSO) (Sigma). After 24-hour incubation, the treated cells and untreated cells were fixed with 4% Paraformaldehyde (PFA) Solution in PBS (Boster biological technology AR1068) for 15 minutes for subsequent immunostaining.
The nuclear morphology in SK-N-SH cells were visualized by immunostaining lamin A and lamin B1. The lamin A and vimentin level in cells were characterized by immunostaining lamin A and vimentin. Cells were cultured on nanopillars and incubated overnight before fixation with pre-warmed 4% Paraformaldehyde (PFA) in PBS (Boster biological technology AR1068) for 15 minutes at room temperature. After washing with PBS for three times, the cells were permeabilized in 0.5% Triton X-100 (Sigma) in PBS for 15 minutes, followed by blocking with 5% bovine serum albumin (BSA) (Sigma) in PBS for 1 hour. Subsequently, samples were incubated with primary antibodies (anti-lamin A, Abcam, ab26300; anti-lamin B1, Abcam, ab16048; anti-vimentin, Sigma, V5255.) at 1:400 dilution at room temperature for 1 hour or 4° C. overnight. […]
(§2) Fluorescence imaging and live cell imaging were done by confocal microscopy (Zeiss LSM 800 with Airyscan or a spinning disc confocal microscope (SDC) that is built around a Nikon Ti2 inverted microscope equipped with a Yokogawa CSU-W1 confocal spinning head). […] The live cell imaging and subsequent fluorescence imaging were done by SDC and the image acquisition and processing was controlled by MetaMorph (Molecular Device) software.
The guided subnuclear irregularities were characterized by measurement of their anisotropicity. […] After thresholding the cropped images of lamin A channel using the masks, the coherency, an indicator for anisotropy property, of the nanopillar-guided nuclear features was measured using orientationJ (a plugin function in ImageJ).

[2] = test system: SK-N-SH cells; assay: Lamin A level by immunostaining after anti-cancer drug treatment; conditions: SK-N-SH cells remaining attached after 24 h; DOX 1 μM, Etop 10 μM; vs DMSO; FIG. 19a-b
Experimental: as §1, with “After 24-hour incubation, the treated cells and untreated cells were fixed with 4% Paraformaldehyde (PFA) Solution in PBS (Boster biological technology AR1068) for 15 minutes for subsequent immunostaining.” left out
as §2

[3] = test system: MDA-MB-231 cells; assay: Nanopillar-guided subnuclear deformation anisotropy (coherency) after drug treatment
[4] = test system: MCF-7 cells; assay: as above; conditions: MCF-7 on nanopillar arrays, treated vs DMSO; FIG. 9c-d
Experimental: Prior to cell culture, the nanostructured chips were cleaned by air plasma for 10 min and exposed to UV for 15 min Subsequently, the nanostructured substrates were coated with fibronectin (2 ug/ml, Sigma-Aldrich) for 30 minutes at 37° C. After coating, cell culture was performed on the substrates. All the cell lines used in this work were maintained in the Dulbecco's Modified Eagle Medium (DMEM) (Gibco) supplemented with 10% fetal bovine serum (FBS) (Life Technologies) and 1% Penicillin-Streptomycin (Life Technologies) in a standard incubator at 37° C. with 5% CO2. […]
Imaging of the fluorescently labeled cells on nanopillar arrays was performed using laser scanning confocal microscopy (Zeiss LSM 800 with Airyscan). […] Live cell imaging and the subsequent fluorescence imaging was performed using a spinning disc confocal microscope (SDC) that is built around a Nikon Tit inverted microscope equipped with a Yokogawa CSU-W1 confocal spinning head, a Plan-Apo objective (100×1.45-NA), a back-illuminated sCMOS camera (Orca-Fusion; Hamamatsu). […]
Anisotropicity of nanopillar-guided subnuclear shape irregularities was measured on nanopillar arrays. […] Then, the anisotropicity of the subnuclear shape irregularities was measured as coherency, an indicator for anisotropy property, using orientationJ (a plugin function in ImageJ).

[5] = test system: MCF-7 cells; assay: Wound healing assay (migration rate); conditions: MCF-7, treatment for 24 h vs DMSO, p value=0.7440; FIG. 9e-f
Experimental: (§3) Cells were maintained in 35 mm dishes for each cell line until approximately 90% confluent. Scratch was made in the confluent monolayer of cells with a sterile […] pipette tip, and fresh culture medium was replaced. Brightfield microscopic pictures were taken of the same field at 24 hours. Migration rate was measured by quantifying the closure area within the same time frame using ImageJ.

[6] = test system: MDA-MB-231 cells; assay: Wound healing assay (migration rate); conditions: MDA-MB-231, treatment for 24 h vs DMSO, p value=0.0363; FIG. 9e-f
Experimental: as §3

| Structure (SMILES) | fraction of cells with dominant isotropic ring features and low deformation coherency [1] | pillar coherency [1] | lamin A level (in words) [2] | lowest concentration at which pillar coherency value and fraction of line-deformation cells responded ([3]; MDA-MB-231, DMSO, 1 μM and 10 μM tested, FIG. 14) [µM] | pillar coherency value ([3]; MDA-MB-231 on nanopillar arrays (500 nm diameter, 3 μm pitch), 24-hour treatment, DMSO control 0.4218±0.1305, FIG. 9c) | fraction of line-deformation cells ([3]; MDA-MB-231 on nanopillar arrays, 24-hour treatment, line = cell coherency >0.3, DMSO control 0.9333±0.1155, FIG. 9d) | change in nuclear deformation coherency / line deformation (in words) ([3]; MDA-MB-231 on nanopillar arrays, treated vs DMSO) | change in anisotropy (coherency) of induced nuclear deformation (in words) [4] | migration speed change (in words) [5] | migration rate change (in words) [6] |
| --- | --- | --- | --- | --- | --- | --- | --- | --- | --- | --- |
| COc1cccc2c1C(=O)c1c(O)c3c(c(O)c1C2=O)C[C@@](O)(C(=O)CO)C[C@@H]3O[C@H]1C[C@H](N)[C@H](O)[C@H](C)O1 [DOX, doxorubicin] | 0.607±0.152 | 0.3057±0.1862 | significantly high lamin A level | – | – | – | – | – | – | – |
| COc1cc([C@@H]2c3cc4c(cc3[C@@H](O[C@@H]3O[C@@H]5CO[C@@H](C)O[C@H]5[C@H](O)[C@H]3O)[C@H]3COC(=O)[C@H]23)OCO4)cc(OC)c1O [Etop, etoposide] | 0.772±0.079 | 0.2606±0.1564 | significantly high lamin A level | – | – | – | – | – | – | – |
| COc1cc(/C=C/C(=O)CC(=O)/C=C/c2ccc(O)c(OC)c2)ccc1O [curcumin] | – | – | – | 1 | 0.2426±0.1570 | 0.2646±0.2695 | significant decreases in nuclear deformation coherency; also recorded: significantly less line deformation | no significant coherency changes; also recorded: No significant change | do not show significant changes in migration speed | lower migration rate |
